Consider one compound from PubChem BioAssay AID2615 (Southern Research Specialized Biocontainment Screening …, 2010).

This test has as its system BSC cells SV40 infection, CPE inhibition. Briefly: antiviral efficacy and BSC cell toxicity – BSC cells, SV40 T antigen inhibitor project, confirmation (AID 2615). Particulars: measured here: cytotoxicity in BSC cells.

For `ClC(Cl)(c1nnnn1-c1ccccc1)c1nnnn1-c1ccccc1`, the TC50 stood at 34 µM.
